How the values were obtained:
MMTV-PyMT mice = assay: Toxicity evaluation of MMTV-PyMT mice after 21 days of treatment; type: in vivo, mouse; settings: KCL-HO-1i p.o. and/or gemcitabine i.p.
Method: (D-G) The MMTV-PyMT mice in (B) were evaluated for evidence of toxicity, including weight change from treatment initiation (D), end of treatment (day 21) plasma ratio of AST:ALT enzymes (E), blood circulating immune cells assessed using flow cytometry (F) and pathology assessment of inflammatory cell infiltrate in the lungs alongside an additional cohort or WT non-tumor bearing mice given dual treatment for 21 days and then assessed at treatment cessation or 30 days after treatment cessation (G). Image in panel (A) was created using BioRender. Bar charts show the mean, error bars SD, and the dots show individual data points from individual tumors and mice. Line charts display the mean and SEM. Gemc.; gemcitabine. * P<0.05, ** P<0.01.
Tissue sections (3µm) were cut from FFPE tissues from the brain, lung, heart, kidney, and liver of treated animals and mounted onto Plus^+ Frost slides (Solmedia). […] Tissue sections were initially examined unblinded and then re-evaluated blinded to confirm the significant findings ([77]). Findings in the tissue were scored using a non-linear semiquantitative grading system from 0 to 5 where 0 = no significant change and 5 = whole organ or tissue affected ([78]). Where grading was not appropriate, findings were scored ‘present’ (P) if seen. In addition, an approximate number of lung metastases was recorded in parentheses after P if present ([78]). […]

[1] = In vivo PK study in male ICR mice; settings: mouse, 25 umol/kg
From the text: (A) Chemical structure of KCL-HO-1i. […] (G-I) Schematic depicting the transgene of the HO-1 reporter mice (HO-1^Luc/eGFP) (upper panel) and the experimental outline (below) (G). […] Whole mouse total photon flux at each timepoint and condition was quantitated (H). Heat map displaying luciferase expression across the indicated dissected tissues (left panel) and their percentage change relative to vehicle treated animals (right panel) (I) (cohorts of n=6 mice). Images in panel (D) and (G) were created using BioRender. Bar charts show the mean, error bars SD, and the dots show individual data points from individual mice. Line charts display the mean and SEM. * P<0.05, ** P<0.01, **** P<0.0001.
Pharmacokinetics studies were performed by Pharmacology Discovery Services (PDS) Taiwan, Ltd. as a contract research organization. A single dose of 25 µMol/Kg was administered to male ICR mice via the indicated route and blood aliquots (∼300 μL) were obtained via cardiac puncture from euthanised mice using tubes coated with lithium heparin at the indicated times. Blood samples were then gently mixed and centrifuged at 2,500 x g for 15 min at 4 °C within an hour of collection. Subsequently, the plasma samples were harvested and stored frozen at -70°C until further processing. The plasma samples underwent methanol (MeOH) precipitation and were analysed using LC-MS/MS. An Agilent Poroshell 120 EC-C18 column with dimensions of 2.7 μm (3.0 x 50 mm) was utilized for chromatographic separation. The mobile phase consisted of 0.2 % formic acid (FA) in water (solvent A) and 0.2 % FA in acetonitrile (ACN; solvent B), with a gradient from 10 % to 80 % (solvent B) over a 2.5-min period at a flow rate of 0.5 mL/min with a sample injection volume of 5 µL. The bioanalytical method involved utilizing mouse plasma as the sample matrix and 20 μL of sample into a well of a 96-well plate. Subsequently, 300 μL of 0.01 ng/μL oxybutynin internal standard (IS) in MeOH was added to each well, excluding double blank (00) and carryover. For the double blank well and carryover, 300 μL of MeOH was added. After vortexing for 1 min and centrifuging at 1000 x g for 5 min, 200 μL of supernatant was taken and mixed with 300 μL of MeOH/water (50/50) for LC-MS/MS analysis. Finally, the exposure levels (ng/mL) of KCL-HO1i in plasma samples were determined using LC-MS/MS.

Molecule	immune cell composition of the blood (MMTV-PyMT mice)	maximum serum concentration (Cmax) ([1]; ip)	serum half-life (T1/2) ([1]; ip)	time to maximum serum concentration (Tmax) ([1]; ip)	oral bioavailability ([1]; po)
Nc1ccn([C@@H]2O[C@H](CO)[C@@H](O)C2(F)F)c(=O)n1 [gemcitabine]	unaffected				
Sn (IV) mesoporphyrin IX dichloride [SnMP]		68 ± 19 µg/mL	4 h	1 h	not orally bioavailable

Source: publication PMC7618036, “An oral heme oxygenase inhibitor targets immunosuppressive perivascular macrophages in preclinical models of cancer” (Science translational medicine, 2025)
